# Assay results from US7348425B2, “Inhibitors of HCV replication” (Bristol-Myers Squibb Company, priority 2004, dated 2008).
# Like-named read-outs stand apart in the source and are kept apart here.
# Experiments:
# [1] = target: T1, HCV NS5B RdRp genotype 1b (Hepatitis C virus genotype 1b, UniProt Q9WMX2); assay: Standard HCV NS5B RdRp enzyme assay; format: biochemical; details: standard method
# T1 construct: The protein was expressed with an 18 amino acid C-terminal truncation to enhance the solubility; made in house; host or cells: E. coli BL21 (DE3), pET21a
# Procedure: HCVNS5B RdRp cloning, expression, and purification. The cDNA encoding the NS5B protein of HCV, genotype 1b, was cloned into the pET21a expression vector. The protein was expressed with an 18 amino acid C-terminal truncation to enhance the solubility. The E. coli competent cell line BL21 (DE3) was used for expression of the protein. Cultures were grown at 37° C. for ˜4 hours until the cultures reached an optical density of 2.0 at 600 nm. The cultures were cooled to 20° C. and induced with 1 mM IPTG. Fresh ampicillin was added to a final concentration of 50 μg/ml and the cells were grown overnight at 20° C.
# Cell pellets (3 L) were lysed for purification to yield 15-24 mgs of purified NS5B. The lysis buffer consisted of 20 mM Tris-HCl, pH 7.4, 500 mM NaCl, 0.5% triton X-100, 1 mM DTT, 1 mM EDTA, 20% glycerol, 0.5 mg/ml lysozyme, 10 mM MgCl2, 15 ug/ml deoxyribonuclease I, and Complete TM protease inhibitor tablets (Roche). After addition of the lysis buffer, frozen cell pellets were resuspended using a tissue homogenizer. To reduce the viscosity of the sample, aliquots of the lysate were sonicated on ice using a microtip attached to a Branson sonicator. The sonicated lysate was centrifuged at 100,000×g for 1 hr at 4° C. and filtered through a 0.2 μm filter unit (Corning).
# The protein was purified using three sequential chromatography steps: Heparin sepharose CL-6B, polyU sepharose 4B, and Hitrap SP sepharose (Pharmacia). The chromatography buffers were identical to the lysis buffer but contained no lysozyme, deoxyribonuclease I, MgCl2 or protease inhibitor and the NaCl concentration of the buffer was adjusted according to the requirements for charging the protein onto the column. Each column was eluted with a NaCl gradient which varied in length from 5-50 column volumes depending on the column type. After the final chromatography step, the resulting purity of the enzyme is >90% based on SDS-PAGE analysis. The enzyme was aliquoted and stored at −80° C.
# Standard HCV NS5B RdRp enzyme assay. HCV RdRp genotype Ib assays were run in a final volume of 60 μl in 96 well plates (Costar 3912). The assay buffer is composed of 20 mM Hepes, pH 7.5, 2.5 mM KCl, 2.5 mM MgCl2, 1 mM DTT, 1.6 U RNAse inhibitor (Promega N2515), 0.1 mg/ml BSA (Promega R3961), and 2% glycerol. All compounds were serially diluted (3-fold) in DMSO and diluted further in water such that the final concentration of DMSO in the assay was 2%. HCV RdRp genotype 1b enzyme was used at a final concentration of 28 nM. A polyA template was used at 6 nM, and a biotinylated oligo-dT12 primer was used at 180 nM final concentration. Template was obtained commercially (Amersham 27-4110). Biotinylated primer was prepared by Sigma Genosys. ^3H-UTP was used at 0.6 μCi (0.29 μM total UTP). Reactions were initiated by the addition of enzyme, incubated at 30° C. for 60 min, and stopped by adding 25 μl of 50 mM EDTA containing SPA beads (4 μg/μl, Amersham RPNQ 0007). Plates were read on a Packard Top Count NXT after >1 hr incubation at room temperature.
# The IC50 values for compounds were determined using seven different [I]. IC50 values were calculated from the inhibition using the formula y=A+((B−A)/(1+((C/x)^D))). FRET Assay Preparation. To perform the HCV FRET screening assay, 96-well cell culture plates were used. The FRET peptide (Anaspec, Inc.) (Taliani et al., Anal. Biochem. 240:60-67 (1996), hereby incorporated by reference in its entirety) contains a fluorescence donor, EDANS, near one end of the peptide and an acceptor, DABCYL, near the other end. The fluorescence of the peptide is quenched by […] resonance energy transfer (RET) between the donor and the acceptor, but as the NS3 protease cleaves the peptide the products are released from RET quenching and the fluorescence of the donor becomes apparent. […]
# HCV replicon = HCV replicon luciferase assay; format: cell-based, Hepatitis C virus; details: luciferase method, read-out: EC50
# Procedure: To prepare plates, HCV replicon cells, with or without a Renilla luciferase reporter gene, were trypsinized and placed into each well of a 96-well plate with titrated test compounds added in columns 3 through 12; columns 1 and 2 contained a control compound (HCV protease inhibitor), and the bottom row contained cells without compound. The plates were then placed in a CO2 incubator at 37 degrees C.
# Assays. Subsequent to addition of the test compounds described above (FRET Assay Preparation), at various times the plate was removed and Alamar blue solution (Trek Diagnostics, #00-100) was added per well as a measure of cellular toxicity. After reading in a Cytoflour 4000 instrument (PE Biosystems), plates were rinsed with PBS and then used for FRET assay by the addition of 30 ul of the FRET peptide assay reagent described above (FRET Assay Preparation) per well. The plate was then placed into the Cytoflour 4000 instrument which had been set to 340 excite/490 emission, automatic mode for 20 cycles and the plate read in a kinetic mode. Typically, the signal to noise using an endpoint analysis after the reads was at least three-fold. Alternatively, after Alamar blue reading, plates were rinsed with PBS, 50 ul of DMEM (high glucose) without phenol red was added and plates were then used for luciferase assay using the Promega Dual-Glo Luciferase Assay System.
# Compound analysis was determined by quantification of the relative HCV replicon inhibition and the relative cytotoxicity values. To calculate cytoxicity values, the average Alamar Blue fluorescence signals from the control wells were set as 100% non-toxic. The individual signals in each of the compound test wells were then divided by the average control signal and multiplied by 100% to determine […]. To calculate the HCV replicon inhibition values, an average background value was obtained from the two wells containing the highest amount of HCV protease inhibitor at the end of the assay period. These numbers were similar to those obtained from naïve Huh-7 cells.
# The background numbers were then subtracted from the average signal obtained from the control wells and this number was used as 100% activity. The individual signals in each of the compound test wells were then divided by the averaged control values after background subtraction and multiplied by 100% to determine percent activity. EC50 values for a protease inhibitor titration were calculated as the concentration which caused a 50% reduction in FRET or luciferase activity. The two numbers generated for the compound plate, percent cytoxicity and percent activity were used to determine compounds of interest for further analysis.
# T1 sequence (Q9WMX2 2420-2992): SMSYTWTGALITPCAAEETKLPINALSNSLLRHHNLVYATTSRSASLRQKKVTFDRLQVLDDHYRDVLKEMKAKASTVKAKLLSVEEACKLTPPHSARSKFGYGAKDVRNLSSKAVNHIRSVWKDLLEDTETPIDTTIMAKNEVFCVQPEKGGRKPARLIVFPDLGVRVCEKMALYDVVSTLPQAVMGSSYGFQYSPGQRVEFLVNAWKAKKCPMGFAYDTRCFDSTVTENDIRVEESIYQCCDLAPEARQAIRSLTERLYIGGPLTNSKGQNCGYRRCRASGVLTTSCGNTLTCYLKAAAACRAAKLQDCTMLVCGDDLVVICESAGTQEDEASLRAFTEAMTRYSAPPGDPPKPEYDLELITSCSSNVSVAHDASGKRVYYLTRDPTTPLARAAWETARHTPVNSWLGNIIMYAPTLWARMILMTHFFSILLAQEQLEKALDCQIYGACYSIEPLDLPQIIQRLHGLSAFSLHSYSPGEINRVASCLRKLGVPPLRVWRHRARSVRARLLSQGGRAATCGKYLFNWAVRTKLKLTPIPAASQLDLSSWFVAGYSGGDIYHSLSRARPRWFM
Compound,IC50 [1] [nM],EC50 (HCV replicon; Hepatitis C virus) [nM],EC50 (HCV replicon) [nM]
O=C(O)/C=C/c1cccc(-c2nc(C3(NC(=O)c4ccc5c(C6CCCCC6)c6n(c5c4)CC=Cc4ccccc4-6)CCCC3)no2)c1 [Example 26],> 1000,100 to 1000,–
O=C(O)/C=C/c1ccc(NC(=O)C2(NC(=O)c3ccc4c(C5CCCCC5)c5n(c4c3)CC(C(=O)N3CCOCC3)Cc3ccccc3-5)CCCC2)cc1 (stereo not shown),100 to 1000,< 100,–
CN(C)S(=O)(=O)NC(=O)c1ccc2c(C3CCCCC3)c3n(c2c1)CCCc1ccccc1-3,100 to 1000,100 to 1000,–
CN(C)CCNC(=O)C1Cc2ccccc2-c2c(C3CCCCC3)c3ccc(C(=O)NS(=O)(=O)N(C)C)cc3n2C1 (stereo not shown),100 to 1000,100 to 1000,–
"COC(=O)c1ccc2c(C3CCCCC3)c3n(c2c1)CC(=O)Nc1ccccc1-3 [Example 20, Methyl 13-cyclohexyl-6,7-dihydro-6-oxo-5H-indolo[1,2-d][1,4]benzodiazepine-10-carboxylate]",> 1000,1000 to 10000,–
O=C(O)c1ccc2c(C3CCCCC3)c3n(c2c1)CCCc1occc1-3,> 1000,1000 to 10000,–
Cn1cnc(S(=O)(=O)NC(=O)c2ccc3c(C4CCCCC4)c4n(c3c2)CCCc2ccccc2-4)c1,> 1000,1000 to 10000,–
O=C(O)c1ccc2c(C3CCCCC3)c3n(c2c1)CC(C(=O)N1CCCCC1)Cc1ccccc1-3 (stereo not shown) [drawing 117],> 1000,–,1000 to 10000
O=C(O)c1ccc2c(C3CCCCC3)c3n(c2c1)CC(C(=O)N1CCCC(O)C1)Cc1ccccc1-3 (stereo not shown) [drawing 120],> 1000,–,1000 to 10000
"CCOC(=O)c1cc2ccccc2c2c(C3CCCCC3)c3ccc(C(=O)OC)cc3n12 [Example 16, 6-ethyl-9-methyl-12-cyclohexyl-indolo[2,1-a]isoquinoline-6,9-dicarboxylic acid]",> 1000,> 10000,–
O=C(O)c1ccc2c(C3CCCCC3)c3n(c2c1)CC(C(=O)N1CCCC(O)C1)Cc1ccccc1-3 (stereo not shown) [drawing 119],100 to 1000,–,100 to 1000
CN(C)S(=O)(=O)NC(=O)c1ccc2c(C3CCCCC3)c3n(c2c1)CC(C(=O)N1CCOCC1)Cc1ccccc1-3 (stereo not shown),100 to 1000,< 100,–
CN(C)CCNC(=O)C1Cc2ccccc2-c2c(C3CCCCC3)c3ccc(C(=O)O)cc3n2C1 (stereo not shown),100 to 1000,100 to 1000,–
O=C(O)c1ccc2c(C3CCCCC3)c3n(c2c1)CC(C(=O)N1CCCCC1)Cc1ccccc1-3 (stereo not shown) [drawing 118],100 to 1000,–,100 to 1000
O=C(O)c1ccc2c(C3CCCCC3)c3c4ccccc4cc(C(=O)O)n3c2c1,> 1000,> 10000,–
O=C(O)c1ccc2c(C3CCCCC3)c3n(c2c1)CC(C(=O)N1CCOCC1)Cc1ccccc1-3 (stereo not shown) [drawing 113],100 to 1000,–,100 to 1000
"O=C(O)c1ccc2c(C3CCCCC3)c3n(c2c1)CC=Cc1ccccc1-3 [Example 18, 13-cyclohexyl-7H-indolo[2,1-a][2]benzazepine-10-carboxylic acid]",> 1000,1000 to 10000,–
